Test results: patent US4010264A, “7-[3-Substituted isoxazol-5-yl]-acetamido-cephalosporanic acids and their anti-bacterial use” (Koninklijke Nederlandsche Gist-en Spiritusfabriek N.V., priority 1970, dated 1977)
≈ marks a conversion by molar mass, not a printed value. Counter-ions that a name gives are not always drawn. Like-named read-outs stand apart in the source and are kept apart here.

Legend:
[1] = system: Staphylococcus aureus A55; experiment: MIC, agar serial dilution test; type: cell-based
Brucella melitensis A488 = experiment: microbe, parasite or virus in culture; type: cell-based; settings: A488, 24 h
[2] = system: Klebsiella pneumoniae A809; experiment: MIC, agar serial dilution test; type: cell-based
[3] = system: Staphylococcus aureus A321; experiment: MIC, agar serial dilution test; type: cell-based
[4] = system: Staphylococcus aureus A355 (penicillinase-producing); experiment: MIC, agar serial dilution test; settings: 24 h
[5] = system: Streptococcus faecalis L 80; experiment: MIC, agar serial dilution test; type: cell-based; settings: Enterococcus faecalis
[6] = system: Diplococcus pneumoniae L 54; experiment: MIC, agar serial dilution test; type: cell-based; settings: Streptococcus pneumoniae
[7] = system: Streptococcus haemolyticus A266; experiment: MIC, agar serial dilution test; type: cell-based
[8] = system: Bacillus subtilis ATCC 6633; experiment: MIC, agar serial dilution test; type: cell-based
[9] = system: Pasteurella multocida A723; experiment: MIC, agar serial dilution test; type: cell-based
[10] = system: Staphylococcus aureus L160a (penicillinase-producing); experiment: MIC, agar serial dilution test; settings: 24 h
[11] = Staphylococcus aureus A55, 24 hours at 37° C, read-out: MIC
[12] = Klebsiella pneumoniae A809, 24 hours at 37° C, read-out: MIC
[13] = Staphylococcus aureus A321, 24 hours at 37° C, read-out: MIC
[14] = L80, Streptococcus faecalis L 80, 24 hours at 37° C, read-out: MIC
[15] = L54, Diplococcus pneumoniae L 54, 24 hours at 37° C, read-out: MIC
[16] = Streptococcus haemolyticus A266, 24 hours at 37° C, read-out: MIC
[17] = ATCC6633, Bacillus subtilis ATCC 6633, 24 hours at 37° C, read-out: MIC
[18] = Pasteurella multocida A723, 24 hours at 37° C, read-out: MIC

## CC1(C)SC2C(NC(=O)C(C(N)=O)c3cc(-c4c(Cl)cccc4Cl)no3)C(=O)N2C1C(=O)O (stereo not drawn) [Example XX, 6-{α-carbamyl-[3-(2,6-dichloro)phenyl-isoxazol-5-yl]acetamido} penicillanic acid]
[1]; [11]
  MIC: 0.25 µg/mL (≈ 0.487 µM)
Brucella melitensis A488
  MIC: 3 µg/mL (≈ 5.84 µM)
[2]; [12]
  MIC: > 100 µg/mL
[3]; [13]
  MIC: 0.25 µg/mL (≈ 0.487 µM)
[4]
  MIC: 3 µg/mL (≈ 5.84 µM)
[5]; [14]
  MIC: 0.5 µg/mL (≈ 0.974 µM)
[6]; [15]
  MIC: 0.06 µg/mL (≈ 0.117 µM)
[7]; [16]
  MIC: 0.03 µg/mL (≈ 0.0584 µM)
[8]; [17]
  MIC: 0.25 µg/mL (≈ 0.487 µM)
[9]; [18]
  MIC: 6 µg/mL (≈ 11.7 µM)
[10]
  MIC: 3 µg/mL (≈ 5.84 µM)

## CC1(C)SC2C(NC(=O)Cc3onc(-c4c(Cl)cccc4Cl)c3C(N)=O)C(=O)N2C1C(=O)O (stereo not drawn) [XIV, 6-{[3-(2,6-dichloro)phenyl-4-carbamyl-isoxazol-5-yl]acetamido} penicillanic acid]
[1]; [11]
  MIC: 12.5 µg/mL (≈ 24.3 µM)
Brucella melitensis A488
  MIC: 50 µg/mL (≈ 97.4 µM)
[2]; [12]
  MIC: > 100 µg/mL
[3]; [13]
  MIC: 12.5 µg/mL (≈ 24.3 µM)
[4]
  MIC: > 100 µg/mL
[5]; [14]
  MIC: 50 µg/mL (≈ 97.4 µM)
[6]; [15]
  MIC: 6 µg/mL (≈ 11.7 µM)
[7]; [16]
  MIC: 1.5 µg/mL (≈ 2.92 µM)
[8]; [17]
  MIC: 3 µg/mL (≈ 5.84 µM)
[9]; [18]
  MIC: 50 µg/mL (≈ 97.4 µM)
[10]
  MIC: > 100 µg/mL

## Cc1onc(-c2ccccc2Cl)c1C(=O)N[C@@H]1C(=O)N2[C@@H]1SC(C)(C)[C@@H]2C(=O)O [Cloxazilline, Cloxacillin, reference compound]
[1]; [11]
  MIC: 0.12 µg/mL (≈ 0.275 µM)
Brucella melitensis A488
  MIC: 100 µg/mL (≈ 229 µM)
[2]; [12]
  MIC: 6 µg/mL (≈ 13.8 µM)
[3]; [13]
  MIC: 0.06 µg/mL (≈ 0.138 µM)
[4]
  MIC: 0.5 µg/mL (≈ 1.15 µM)
[5]; [14]
  MIC: 25 µg/mL (≈ 57.4 µM)
[6]; [15]
  MIC: 1.5 µg/mL (≈ 3.44 µM)
[7]; [16]
  MIC: 0.25 µg/mL (≈ 0.574 µM)
[8]; [17]
  MIC: 0.25 µg/mL (≈ 0.574 µM)
[9]; [18]
  MIC: 6 µg/mL (≈ 13.8 µM)
[10]
  MIC: 1 µg/mL (≈ 2.29 µM)

## Cc1c(-c2c(Cl)cccc2Cl)noc1CC(=O)NC1C(=O)N2C1SC(C)(C)C2C(=O)O (stereo not drawn) [Example X, Sodium salt of 6-{[3-(2,6-dichloro)phenyl-4-methyl-isoxazol-5-yl]acetamido}penicillanic acid]
[1]; [11]
  MIC: 0.03 µg/mL
Brucella melitensis A488
  MIC: 3 µg/mL
[2]; [12]
  MIC: > 100 µg/mL
[3]; [13]
  MIC: 0.03 µg/mL
[4]
  MIC: 3 µg/mL
[5]; [14]
  MIC: 0.25 µg/mL
[6]; [15]
  MIC: 0.02 µg/mL
[7]; [16]
  MIC: 0.006 µg/mL
[8]; [17]
  MIC: 0.005 µg/mL
[9]; [18]
  MIC: 3 µg/mL
[10]
  MIC: 0.5 µg/mL

## CC1(C)SC2C(NC(=O)Cc3cc(-c4ccc([N+](=O)[O-])cc4)no3)C(=O)N2C1C(=O)O (stereo not drawn) [XIX, Sodium salt of 6-{[3-p-nitrophenyl-isoxazol-5-yl]acetamido}penicillanic acid]
[1]; [11]
  MIC: 0.03 µg/mL
Brucella melitensis A488
  MIC: 0.12 µg/mL
[2]; [12]
  MIC: 100 µg/mL
[3]; [13]
  MIC: 0.03 µg/mL
[4]
  MIC: 1 µg/mL
[5]; [14]
  MIC: 1 µg/mL
[6]; [15]
  MIC: 0.03 µg/mL
[7]; [16]
  MIC: 1.5 µg/mL
[8]; [17]
  MIC: < 0.015 µg/mL
[9]; [18]
  MIC: 1 µg/mL
[10]
  MIC: 3 µg/mL

## O=C(Cc1cccs1)N[C@@H]1C(=O)N2C(C(=O)[O-])=C(C[n+]3ccccc3)CS[C@H]12 [Cephaloridine, Cephaloridin, reference compound]
[1]; Staphylococcus aureus, A55, 24 h
  MIC: 0.06 µg/mL (≈ 0.144 µM)
Brucella melitensis A488
  MIC: 3 µg/mL (≈ 7.22 µM)
[2]; Klebsiella pneumoniae, A809, 24 h
  MIC: 3 µg/mL (≈ 7.22 µM)
[3]; Staphylococcus aureus, A321, 24 h
  MIC: 0.06 µg/mL (≈ 0.144 µM)
[4]
  MIC: 0.12 µg/mL (≈ 0.289 µM)
[5]; L80, 24 h
  MIC: 12.5 µg/mL (≈ 30.1 µM)
[6]; L54, 24 h
  MIC: 0.015 µg/mL (≈ 0.0361 µM)
[7]; Streptococcus, A266, 24 h
  MIC: 0.015 µg/mL (≈ 0.0361 µM)
[8]; Bacillus subtilis, ATCC6633, 24 h
  MIC: 0.06 µg/mL (≈ 0.144 µM)
[9]; Pasteurella multocida, A723, 24 h
  MIC: 1 µg/mL (≈ 2.41 µM)
[10]
  MIC: 0.06 µg/mL (≈ 0.144 µM)

## CC1(C)SC2C(NC(=O)Cc3cc(C45CC6CC(CC(C6)C4)C5)no3)C(=O)N2C1C(=O)O (stereo not drawn) [Example XVI, Sodium salt of 6-{[3-(1)adamantyl-isoxazol-5-yl]acetamido} penicillanic acid]
[1]; [11]
  MIC: 0.5 µg/mL
Brucella melitensis A488
  MIC: 3 µg/mL
[2]; [12]
  MIC: > 100 µg/mL
[3]; [13]
  MIC: 0.03 µg/mL
[4]
  MIC: 12.5 µg/mL
[5]; [14]
  MIC: 0.25 µg/mL
[6]; [15]
  MIC: 0.06 µg/mL
[7]; [16]
  MIC: < 0.015 µg/mL
[8]; [17]
  MIC: 0.03 µg/mL
[9]; [18]
  MIC: 6 µg/mL
[10]
  MIC: 12.5 µg/mL

## CC(=O)OCC1=C(C(=O)O)N2C(=O)C(NC(=O)Cc3onc(-c4c(C)cc(C)cc4C)c3C)C2SC1 (stereo not drawn) [XII, Sodium salt of 7-{[3-(2,4,6-trimethyl)phenyl-4-methyl-isoxazol-5-yl]acetamido}cephalosporanic acid]
[1]; [11]
  MIC: 0.25 µg/mL
Brucella melitensis A488
  MIC: 50 µg/mL
[2]; [12]
  MIC: > 100 µg/mL
[3]; [13]
  MIC: 0.12 µg/mL
[4]
  MIC: 0.25 µg/mL
[5]; [14]
  MIC: 6 µg/mL
[6]; [15]
  MIC: 0.06 µg/mL
[7]; [16]
  MIC: 0.06 µg/mL
[8]; [17]
  MIC: 0.06 µg/mL
[9]; [18]
  MIC: 100 µg/mL
[10]
  MIC: 0.25 µg/mL

## CC1=C(C(=O)O)N2C(=O)C(NC(=O)Cc3onc(-c4c(Cl)cccc4Cl)c3C)C2SC1 (stereo not drawn) [VIII, 7-{[3-(2,6-dichloro)phenyl-4-methyl-isoxazol-5-yl]acetamidodesacetoxycephalosporanic}acid]
[1]; [11]
  MIC: 1.5 µg/mL (≈ 3.11 µM)
Brucella melitensis A488
  MIC: 12.5 µg/mL (≈ 25.9 µM)
[2]; [12]
  MIC: > 100 µg/mL
[3]; [13]
  MIC: 0.5 µg/mL (≈ 1.04 µM)
[4]
  MIC: 3 µg/mL (≈ 6.22 µM)
[5]; [14]
  MIC: 100 µg/mL (≈ 207 µM)
[6]; [15]
  MIC: 1 µg/mL (≈ 2.07 µM)
[7]; [16]
  MIC: 0.25 µg/mL (≈ 0.518 µM)
[8]; [17]
  MIC: 0.25 µg/mL (≈ 0.518 µM)
[9]; [18]
  MIC: 100 µg/mL (≈ 207 µM)
[10]
  MIC: 3 µg/mL (≈ 6.22 µM)
